Laboratory results: US12503436B2, “Compounds and compositions for treating conditions associated with STING activity” (NOVARTIS PHARMA AG, priority 2021, dated 2025)

Biological target: STING (Homo sapiens, UniProt Q86WV6, G230A/H232R/R293Q/R71H)
Assay: STING reporter assay in THP1-Dual KO-IFNAR2 cells (2′3′cGAMP stimulation, luciferase reporter)
Format: cell-based
Details: 15 μM 2′3′cGAMP stimulation, 24 h, read-out: Pharmaron, THP1_IFNAR2 STING 24 h Luci Normalized: GeoMean EC50
Method: STING pathway activation by the compounds described herein was measured using THP1-Dual™ cells (KO-IFNAR2).
THP1-Dual™ KO-IFNAR2 Cells (obtained from InvivoGen) were maintained in RPMI, 10% FCS, 5 ml P/S, 2 mM L-glut, 10 mM Hepes, and 1 mM sodium pyruvate. Compounds were spotted in empty 384 well tissue culture plates (Greiner 781182) by Echo for a final concentration of 0.0017-100 μM. Cells were plated into the TC plates at 40 μL per well, 2×10E6 cells/mL. For activation with STING ligand, 2′3′cGAMP (MW 718.38, obtained from Invivogen), was prepared in Optimem media.
The following solutions were prepared for each 1×384 plate: • Solution A: 2 mL Optimem with one of the following stimuli: • 60 μL of 10 mM 2′3′cGAMP→150 μM stock • Solution B: 2 mL Optimem with 60 μL Lipofectamine 2000→Incubate 5 min at RT
2 mL of solution A and 2 ml Solution B was mixed and incubated for 20 min at room temperature (RT). 20 μL of transfection solution (A+B) was added on top of the plated cells, with a final 2′3′cGAMP concentration of 15 μM. The plates were then centrifuged immediately at 340 g for 1 minute, after which they were incubated at 37° C., 5% CO2, >98% humidity for 24 h. Luciferase reporter activity was then measured. EC50 values were calculated by using standard methods known in the art.
Luciferase reporter assay: 10 μL of supernatant from the assay was transferred to white 384-plate with flat bottom and squared wells. One pouch of QUANTI-Luc™ Plus was dissolved in 25 mL of water. 100 μL of QLC Stabilizer per 25 mL of QUANTI-Luc™ Plus solution was added. 50 μL of QUANTI-Luc™ Plus/QLC solution per well was then added. Luminescence was measured on a Platereader (e.g., Spectramax I3X (Molecular Devices GF3637001)).
Luciferase reporter activity was then measured. EC50 values were calculated by using standard methods known in the art.

STING, sequence (Q86WV6 whole entry R71H/G230A/H232R/R293Q): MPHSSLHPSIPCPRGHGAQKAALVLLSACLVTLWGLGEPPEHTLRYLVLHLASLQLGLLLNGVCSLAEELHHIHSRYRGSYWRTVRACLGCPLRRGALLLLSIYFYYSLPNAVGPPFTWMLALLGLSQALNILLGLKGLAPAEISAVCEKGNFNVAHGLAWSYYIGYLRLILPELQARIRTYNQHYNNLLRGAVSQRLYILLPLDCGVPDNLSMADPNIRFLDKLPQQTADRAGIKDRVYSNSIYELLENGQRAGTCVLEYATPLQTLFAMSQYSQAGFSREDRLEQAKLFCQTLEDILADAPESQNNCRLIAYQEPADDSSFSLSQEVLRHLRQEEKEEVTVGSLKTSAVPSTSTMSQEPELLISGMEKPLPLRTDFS

Molecule | EC50
3-methyl-N-(5-(2-((3aR,5r,6aS)-2-(2,2,2-trifluoroethyl)octahydrocyclopenta[c]pyrrol-5-yl)ethoxy)-1H-indol-3-yl)oxetane-3-carboxamide [Compound 382] | 200 to 1000 nM
CC(=O)Nc1c[nH]c2ccc(O[C@@H]3C[C@H](c4ccc(C(F)(F)F)cc4)C3(C)C)cc12 (relative stereo) [Compound 432, N-(5-(cis-2,2-dimethyl-3-(4-(trifluoromethyl)phenyl)cyclobutoxy)-1H-indol-3-yl)acetamide] | 1000 to 5000 nM
CC(=O)Nc1c[nH]c2ccc(OC(C)Cc3ccc(C(F)(F)F)cc3)cc12 (single isomer, unassigned) [Compound 285, N-(5-((1-(4-(trifluoromethyl)phenyl)propan-2-yl)oxy)-1H-indol-3-yl)acetamide] | 1000 to 5000 nM
CC(=O)Nc1c[nH]c2ccc(OC(C)Cc3ccc(C(F)(F)F)cc3)cc12 (single isomer, unassigned) [Compound 286, N-(5-((1-(4-(trifluoromethyl)phenyl)propan-2-yl)oxy)-1H-indol-3-yl)acetamide] | 1000 to 5000 nM
C[C@]1(C(=O)Nc2c[nH]c3ccc(O[C@H]4C[C@H](c5ccc(C(F)(F)F)cc5)C4)cc23)CC[C@H](O)CC1 (single isomer, unassigned) [Compound 425, trans-4-hydroxy-1-methyl-N-(5-(trans-3-(4-(trifluoromethyl)phenyl)cyclobutoxy)-1H-indol-3-yl)cyclohexane-1-carboxamide] | 200 to 1000 nM
C[C@]1(C(=O)Nc2c[nH]c3ccc(O[C@H]4C[C@H](c5ccc(C(F)(F)F)cc5)C4)cc23)CC[C@@H](O)CC1 (single isomer, unassigned) [Compound 426, cis-4-hydroxy-1-methyl-N-(5-(trans-3-(4-(trifluoromethyl)phenyl)cyclobutoxy)-1H-indol-3-yl)cyclohexane-1-carboxamide] | 40 to 200 nM
N#C[C@H]1C[C@@H]1C(=O)Nc1c[nH]c2ccc(O[C@H]3C[C@@H](c4ccc(C(F)(F)F)cc4)C3)cc12 (stereo in doubt) [Compound 332, cis-2-cyano-N-(5-(cis-3-(4-(trifluoromethyl)phenyl)cyclobutoxy)-1H-indol-3-yl)cyclopropane-1-carboxamide] | 200 to 1000 nM
CC1(C(=O)Nc2c[nH]c3ccc(OC4CC(c5ccc(C(F)(F)F)nc5)C4)cc23)CC1 (stereo in doubt) [Compound 580, 1-methyl-N-(5-(cis-3-(6-(trifluoromethyl)pyridin-3-yl)cyclobutoxy)-1H-indol-3-yl)cyclopropane-1-carboxamide] | 40 to 200 nM
CC(=O)Nc1c[nH]c2ccc(O[C@H]3C[C@@H](c4ccc(C(F)(F)F)cc4)C3)cc12 [Compound 102, N-(5-(cis-3-(4-(trifluoromethyl)phenyl)cyclobutoxy)-1H-indol-3-yl)acetamide] | 40 to 200 nM
CC(=O)Nc1c[nH]c2ccc(O[C@H]3C[C@H](c4ccc(C(F)(F)F)cc4)C3)cc12 [Compound 103, N-(5-(trans-3-(4-(trifluoromethyl)phenyl)cyclobutoxy)-1H-indol-3-yl)acetamide] | 40 to 200 nM
CC(=O)Nc1c[nH]c2ccc(OCC(F)C3CCN(CC(F)(F)F)CC3)cc12 (centres unmarked) [Compound 105, N-(5-(2-fluoro-2-(1-(2,2,2-trifluoroethyl)piperidin-4-yl)ethoxy)-1H-indol-3-yl)acetamide] | 1000 to 5000 nM
CC(=O)Nc1c[nH]c2ccc(OCC(C)(C)C3CCN(CC(F)(F)F)CC3)cc12 [Compound 108, N-(5-(2-methyl-2-(1-(2,2,2-trifluoroethyl)piperidin-4-yl)propoxy)-1H-indol-3-yl)acetamide] | 5000 to 100000 nM
CC(=O)Nc1c[nH]c2ccc(OCC(F)(F)CN3CCC(F)(F)CC3)cc12 [Compound 112, N-(5-(3-(4,4-difluoropiperidin-1-yl)-2,2-difluoropropoxy)-1H-indol-3-yl)acetamide] | 5000 to 100000 nM

Further lines, results first:

EC50 | Molecule
200 to 1000 nM | 1-fluoro-N-(5-(2-((3aR,5r,6aS)-2-(2,2,2-trifluoroethyl)octahydrocyclopenta[c]pyrrol-5-yl)ethoxy)-1H-indol-3-yl)cyclopropane-1-carboxamide [Compound 371]
200 to 1000 nM | 2,2-dimethyl-N-(5-(2-((3aR,5r,6aS)-2-(2,2,2-trifluoroethyl)octahydrocyclopenta[c]pyrrol-5-yl)ethoxy)-1H-indol-3-yl)cyclopropane-1-carboxamide [Compound 368]
200 to 1000 nM | 3,3-dimethyl-N-(5-(2-((3aR,5r,6aS)-2-(2,2,2-trifluoroethyl)octahydrocyclopenta[c]pyrrol-5-yl)ethoxy)-1H-indol-3-yl)butanamide [Compound 339]
200 to 1000 nM | 3-(hydroxymethyl)-N-(5-(2-((3aR,5r,6aS)-2-(2,2,2-trifluoroethyl)octahydrocyclopenta[c]pyrrol-5-yl)ethoxy)-1H-indol-3-yl)cyclobutane-1-carboxamide [Compound 343]
200 to 1000 nM | 3-chloro-N-(5-(2-((3aR,5r,6aS)-2-(2,2,2-trifluoroethyl)octahydrocyclopenta[c]pyrrol-5-yl)ethoxy)-1H-indol-3-yl)cyclobutane-1-carboxamide [Compound 342]
200 to 1000 nM | 3-hydroxy-N-(5-(2-((3aR,5r,6aS)-2-(2,2,2-trifluoroethyl)octahydrocyclopenta[c]pyrrol-5-yl)ethoxy)-1H-indol-3-yl)cyclobutane-1-carboxamide [Compound 347]
200 to 1000 nM | O=C(Nc1c[nH]c2ccc(CC(O)Cc3ccc(C(F)(F)F)cc3)cc12)C1CC1 (single isomer, unassigned) [Compound 200, N-(5-(2-hydroxy-3-(4-(trifluoromethyl)phenyl)propyl)-1H-indol-3-yl)cyclopropanecarboxamide]
200 to 1000 nM | O=C(Nc1c[nH]c2ccc(CC(O)Cc3ccc(C(F)(F)F)cc3)cc12)C1CC1 (single isomer, unassigned) [Compound 201, N-(5-(2-hydroxy-3-(4-(trifluoromethyl)phenyl)propyl)-1H-indol-3-yl)cyclopropanecarboxamide]
1000 to 5000 nM | CC(=O)Nc1c[nH]c2ccc(OCCC3CCCN(CC(F)(F)F)C3)cc12 (single isomer, unassigned) [Compound 279]
1000 to 5000 nM | CC(=O)Nc1c[nH]c2ccc(OCCC3CCCN(CC(F)(F)F)C3)cc12 (single isomer, unassigned) [Compound 280]
200 to 1000 nM | CC(=O)Nc1c[nH]c2ccc(OCC[C@H]3CC[C@@H](C(F)(F)F)CC3)cc12 (single isomer, unassigned) [Compound 454, N-(5-(2-(cis-4-(trifluoromethyl)cyclohexyl)ethoxy)-1H-indol-3-yl)acetamide]
200 to 1000 nM | CC(=O)Nc1c[nH]c2ccc(OCC[C@H]3CC[C@H](C(F)(F)F)CC3)cc12 (single isomer, unassigned) [Compound 456, N-(5-(2-(trans-4-(trifluoromethyl)cyclohexyl)ethoxy)-1H-indol-3-yl)acetamide]
200 to 1000 nM | CC(=O)Nc1c[nH]c2ccc(COCc3ccc(Cl)c(Cl)c3)cc12 [Compound 101, N-(5-(((3,4-dichlorobenzyl)oxy)methyl)-1H-indol-3-yl)acetamide]
200 to 1000 nM | CC(=O)Nc1c[nH]c2ccc(OCCC3CCN(c4ccc(C(F)(F)F)cc4)CC3)cc12 [Compound 104, N-(5-(2-(1-(4-(trifluoromethyl)phenyl)piperidin-4-yl)ethoxy)-1H-indol-3-yl)acetamide]
200 to 1000 nM | CC(=O)Nc1c[nH]c2ccc(COCc3cccc(C(F)(F)F)c3)cc12 [Compound 106, N-(5-(((3-(trifluoromethyl)benzyl)oxy)methyl)-1H-indol-3-yl)acetamide]
40 to 200 nM | COCC(=O)Nc1c[nH]c2ccc(OCCc3ccc(C(F)(F)F)cc3)cc12 [Compound 107, 2-methoxy-N-(5-(4-(trifluoromethyl)phenethoxy)-1H-indol-3-yl)acetamide]
40 to 200 nM | O=C(Nc1c[nH]c2ccc(COCc3ccc(C(F)(F)F)cc3)cc12)C1CCC1 [Compound 109, N-(5-(((4-(trifluoromethyl)benzyl)oxy)methyl)-1H-indol-3-yl)cyclobutanecarboxamide]
200 to 1000 nM | CC(=O)Nc1c[nH]c2ccc(OCC[C@@H]3[C@H]4CN(CC(F)(F)F)C[C@@H]34)cc12 [Compound 110, N-(5-(2-((1R,5S,6s)-3-(2,2,2-trifluoroethyl)-3-azabicyclo[3.1.0]hexan-6-yl)ethoxy)-1H-indol-3-yl)acetamide]
40 to 200 nM | CC(=O)Nc1c[nH]c2ccc(COCc3ccc(C(F)(F)F)cc3)cc12 [Compound 111, N-(5-(((4-(trifluoromethyl)benzyl)oxy)methyl)-1H-indol-3-yl)acetamide]
